The values that follow are results of earlier work, collected in US20230165862A1, “CANCER THERAPY USING 3,5-DISUBSTITUTED BENZENE ALKYNYL COMPOUND AND MEK INHIBITOR” (TAIHO PHARMACEUTICAL CO., LTD., priority 2020, published 2023).

For data set [1] the following is noted: human; 30 mg or more per dose twice daily.
The conditions of data set [2]: human; steady-state PK, dose of 40 mg in Stage 1 (21/7), once daily.
The conditions of data set [3]: human; 0.5 mg or more per dose once daily.

Structures are written as SMILES.

For the compound `Cn1cnc2c(F)c(Nc3ccc(Br)cc3F)c(C(=O)NOCCO)cc21` [Binimetinib, 5-[(4-bromofluorophenyl)amino]-4-fluoro-N-(2-hydroxyethoxy)-1-methyl-1H-benzimidazole-6-carboxamide], the “Time a blood concentration of 18.45 ng/mL (corresponds to 100 nM) is achieved” value in data set [1] is on record as “more than 8 hours”.
For `O=C(c1ccc(F)c(F)c1Nc1ccc(I)cc1F)N1CC(O)([C@@H]2CCCCN2)C1` [Cobimetinib, [3,4-difluoro-2-[(2-fluoro-4-iodophenyl)amino]phenyl][3-hydroxy-3-[(2S)-2-piperidinyl]-1-azetidinyl]methanone], in data set [2], the “Time a concentration higher than 53 ng/mL (corresponds to 100 nM) is achieved” value is 14 h.
In the case of `CC(=O)Nc1cccc(-n2c(=O)n(C3CC3)c(=O)c3c(Nc4ccc(I)cc4F)n(C)c(=O)c(C)c32)c1` [Trametinib, N-(3-{3-cyclopropyl-5-[(2-fluoro-4-iodophenyl)amino]-6,8-dimethyl-2,4,7-trioxo-3,4,6,7-tetrahydropyrido[4,3-d]pyrimidin-1(2H)-yl}phenyl)acetamide], the “Time a blood concentration of 1.3 ng/mL (corresponds to 10 nM) is achieved” value in data set [3] was at least 24 h.
